In patent US10701931B2, “Mosquito activating formulations” (Commonwealth Scientific and Industrial Research Organisation, priority 2015, dated 2020):

Tested on: Anopheles stephensi
Assay: Y-tube olfactometer, measurement of activation against clean air
Type: in vivo
Conditions: for Activation (against clean air): An. stephensi females
Procedure: A y-tube olfactometer was used to establish whether the volatile components of human breath elicited behavioural responses in the malaria vector Anopheles stephensi. The MR4 strain of An. stephensi (New Delhi, India) was maintained at 27° C., 70% RH, 12:12 L:D and 30 min dawn/dusk periods). 4 to 7 day old female mosquitoes, that had never received a blood meal, were used in experiments. Mosquitoes were maintained on 10% sugar solution ad libitum but starved for 12 hr prior to testing. The Y tube olfactometer is made entirely of glass and consists of a release chamber, the Y tube itself, and a trap chamber attached to each arm (FIG. 1). Each trap chamber is divided in two by a fine glass filter. On the far side of those filters, the trap chambers can connect to charcoal filters or to gas bags or gas cylinders. Air is pulled through the olfactometer by connecting the release chamber to a vacuum tap which vents the contents of the tube. Standard air flow (0.4 L/minute) is maintained using a 0.1-1.2 LPM flow meter (John Morris Pty, LTD). The air volume of the Y-tube is approximately 1 litre and is therefore replaced every 2.5 minutes. One arm is attached to a gas bag of clean air (from a compressed air cylinder) […]. The other arm remains connected to a carbon filter and the air inlet to give a plume of compressed air plus test stimuli (i.e. standard air concentration of CO2 only). 1 μl 10^−2 to 10^−5% test stimuli in mineral oil (Sigma Aldrich) was spotted on 1 cm^2 Whatman filter paper. Test stimuli was delivered by placing treated filter paper between the air inlet and the trap chamber to give a plume of compressed air plus test stimuli (i.e. standard air concentration of CO2 only). All experiments were run under PC2 quarantine conditions, at 27° C., 70% RH, under infrared light. Observers were always in the same position during the tests, at the trap chamber end of the olfactometer, between the 2 arms of the Y tube. Using an aspirator, 25-30 starved female An. stephensi were introduced into the release chamber (FIG. 1). […] After each test, mosquitoes were carefully aspirated from the apparatus by disconnecting constituent parts. The apparatus was flushed with clean air (charcoal filters only) for 5 minutes before the next batch of stimuli was introduced. A total of 10 replicates (different batches of mosquitoes) were run for each stimuli assessment. Treatment and control arms were alternated between replicates. After completion of 10 replicates, the apparatus was rinsed in acetone and allowed to dry overnight. Initial experiments were therefore less concerned with directional responses and more with establishing the range of doses that appeared to cause some form of excitation. Those initial experiments were conducted in comparison to a neutral control (a negative would be repellent) of clean air drawn through a charcoal filter. The test stimuli were tested against mosquitoes at serial dilutions in the range 10^−2 to 10^−5%. Once mosquitoes had stopped responding, the numbers in the olfactometer arms, base leg and release chamber were counted. Mosquitoes were assumed to have been “activated” if they moved into the Y tube arms.

## CC=CSC [MTPE, 1-methylthio-1-propene]
Against clean air, tested 10^-2 to 10^-5%
  Concentration of greatest activation response: 0.0001 % v/v
At lower (0.00001%) and higher (0.001-0.01%) concentrations (v/v)
  Activation compared with that at 0.0001% v/v: reduced
Dilution 0.00001 (10^-5)% in mineral oil
  Activation (against clean air): Yes
Dilution 0.0001 (10^-4)% in mineral oil
  Activation (against clean air): Yes
Dilution 0.001 (10^-3)% in mineral oil
  Activation (against clean air): Yes
Dilution 0.01 (10^-2)% in mineral oil
  Activation (against clean air): Yes
